Reference: PubChem BioAssay AID330 (DTP/NCI, 2004)
Values joined by “and” are separate entries in the source; they are usually repeats but may differ in a detail not shown here. Equal values may be shown once. Inconclusive results and toxic doses are left out. How the source made its calls: active means survival T/C of 150% or more; inactive means T/C below 125% in these data. Square brackets hold non-standard residues; d marks the D form. Peptide text beside a SMILES is read from it. * marks the point of attachment. Cbz = O=C(OCc1ccccc1)*; Dha = C=C(N)C(=O)O

Test system: P388 leukemia ip, CD2F1 mice, survival T/C
Experiment: NCI In Vivo Anticancer Drug Screen. Data for tumor model P388 Leukemia (intraperitoneal) in CD2F1 (CDF1) mice
Conditions: endpoint: median survival time, higher = longer survival
In short: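 Mice carrying the transplanted tumor received test compound or vehicle. Survival was recorded in each group, and the value is the treated-group measurement divided by that of the vehicle-treated control group.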

[1] = dose: 25.0 mg/kg/injection, schedule: Q01DX009 (ip), vehicle: Klucel (hydroxypropylcellulose) (HPC)
[2] = dose: 50.0 mg/kg/injection, schedule: Q01DX009 (ip), vehicle: Klucel (hydroxypropylcellulose) (HPC)
[3] = dose: 100.0 mg/kg/injection, schedule: Q01DX009 (ip), vehicle: Klucel (hydroxypropylcellulose) (HPC)
[4] = dose: 200.0 mg/kg/injection, schedule: Q01DX009 (ip), vehicle: Klucel (hydroxypropylcellulose) (HPC)
[5] = dose: 60.0 mg/kg/injection, schedule: Q01DX005 (ip), vehicle: saline with Tween-80
[6] = dose: 120.0 mg/kg/injection, schedule: Q01DX005 (ip), vehicle: saline with Tween-80
[7] = dose: 240.0 mg/kg/injection, schedule: Q01DX005 (ip), vehicle: saline with Tween-80
[8] = dose: 400.0 mg/kg/injection, schedule: Q01DX009 (ip), vehicle: Klucel (hydroxypropylcellulose) (HPC)
[9] = dose: 12.5 mg/kg/injection, schedule: Q01DX005 (ip), vehicle: Klucel (hydroxypropylcellulose) (HPC)
[10] = dose: 25.0 mg/kg/injection, schedule: Q01DX005 (ip), vehicle: Klucel (hydroxypropylcellulose) (HPC)
[11] = dose: 50.0 mg/kg/injection, schedule: Q01DX005 (ip), vehicle: Klucel (hydroxypropylcellulose) (HPC)
[12] = dose: 100.0 mg/kg/injection, schedule: Q01DX005 (ip), vehicle: Klucel (hydroxypropylcellulose) (HPC)
[13] = dose: 200.0 mg/kg/injection, schedule: Q01DX005 (ip), vehicle: Klucel (hydroxypropylcellulose) (HPC)
[14] = dose: 100.0 mg/kg/injection, schedule: Q01DX001 (ip), vehicle: saline with Tween-80
[15] = dose: 200.0 mg/kg/injection, schedule: Q01DX001 (ip), vehicle: saline with Tween-80
[16] = dose: 100.0 mg/kg/injection, schedule: Q04DX002 (ip), vehicle: saline with Tween-80
[17] = dose: 200.0 mg/kg/injection, schedule: Q04DX002 (ip), vehicle: saline with Tween-80
[18] = dose: 50.0 mg/kg/injection, schedule: Q01DX001 (ip), vehicle: Klucel (hydroxypropylcellulose) (HPC)

Measured: T/C

COc1ccc(C(=O)/C=C/c2cc3c(cc2OCc2ccccc2)OCO3)c(OCc2ccccc2)c1
inactive: dose: 75.0 mg/kg/injection, schedule: Q04DX003 (ip), vehicle: Klucel (hydroxypropylcellulose) (HPC) 99 % of control | dose: 150.0 mg/kg/injection, schedule: Q04DX003 (ip), vehicle: Klucel (hydroxypropylcellulose) (HPC) 94 % of control | dose: 300.0 mg/kg/injection, schedule: Q04DX003 (ip), vehicle: Klucel (hydroxypropylcellulose) (HPC) 90 % of control

COc1ccc(Cl)cc1NC(=O)Nc1nccs1
inactive: [1] 90 % of control | [2] 90 % of control | [3] 90 % of control | [4] 88 % of control

O=C1C(Cl)=C(N2CCOCC2)C(=O)C(Cl)=C1N1CCOCC1
inactive: dose: 50.0 mg/kg/injection, schedule: Q01DX005 (ip), vehicle: suspension in saline 99 % of control | dose: 100.0 mg/kg/injection, schedule: Q01DX005 (ip), vehicle: suspension in saline 104 % of control

Nc1nc(N)c2nc(CNc3ccc(C(=O)NC(CCC(=O)O)C(=O)O)cc3)cnc2n1 (stereo not given)
inactive: dose: 0.03 mg/kg/injection, schedule: Q01DX009 (ip), vehicle: clinical formulation 105 % of control | dose: 0.04 mg/kg/injection, schedule: Q01DX009 (ip), vehicle: clinical formulation 120 % of control

COc1cc(C2C(C)=C(C)Oc3cc4c(cc32)OCO4)cc(OC)c1OC (stereo not given)
inactive: [5] 97 % of control | [6] 91 % of control | [7] 88 % of control

COC1/C=C\OC2(C)Oc3c(C)c(O)c4c(O)c(c(CN(C)CCO)c(O)c4c3C2=O)NC(=O)/C(C)=C\C=C/C(C)C(O)C(C)C(O)C(C)C(OC(C)=O)C1C (stereo not given)
inactive: dose: 12.5 mg/kg/injection, schedule: Q01DX009 (ip), vehicle: Klucel (hydroxypropylcellulose) (HPC) 86 % of control | [1] 117 % of control | [2] 118 % of control | [3] 111 % of control | [4] 104 % of control | [8] 96 % of control

CCN(CC)C(=S)n1c(=S)nc(N(CC)CC)sc1=S
inactive: dose: 6.25 mg/kg/injection, schedule: Q01DX005 (ip), vehicle: Klucel (hydroxypropylcellulose) (HPC) 109 % of control | [9] 98 % of control | [10] 108 % of control

CCCCCCCCCCCCCCCCSc1ccncc1NN=O
inactive: dose: 3.12 mg/kg/injection, schedule: Q01DX009 (ip), vehicle: saline with Tween-80 99 % of control | dose: 6.25 mg/kg/injection, schedule: Q01DX009 (ip), vehicle: saline with Tween-80 106 % of control | dose: 12.5 mg/kg/injection, schedule: Q01DX009 (ip), vehicle: saline with Tween-80 101 % of control | dose: 25.0 mg/kg/injection, schedule: Q01DX009 (ip), vehicle: saline with Tween-80 105 % of control | dose: 50.0 mg/kg/injection, schedule: Q01DX009 (ip), vehicle: saline with Tween-80 99 % of control and 100 % of control | dose: 100.0 mg/kg/injection, schedule: Q01DX009 (ip), vehicle: saline with Tween-80 113 % of control

CC(=O)NC(c1nc2cc(C)c(C)cc2[nH]1)c1nc2cc(C)c(C)cc2[nH]1
inactive: [11] 101 % of control | [12] 106 % of control | [13] 110 % of control

O=C1NC(=O)C2(OC3c4ccccc4C=NN3C3=C2C(=O)CC3)C(=O)N1 (stereo not given)
inactive: [14] 101 % of control | [15] 100 % of control | dose: 400.0 mg/kg/injection, schedule: Q01DX001 (ip), vehicle: saline with Tween-80 104 % of control

O=[N+]([O-])c1cc(CNCCO)c(O)c2ncccc12
inactive: [5] 91 % of control | [6] 93 % of control | [7] 110 % of control

O=C1OC(c2ccccc2)Sc2ccccc21 (stereo not given)
inactive: [3] 99 % of control | [4] 95 % of control | [8] 92 % of control

C=C(NC(=O)C(C)NC(=O)OCc1ccccc1)C(=O)N1CCCC1C(=O)NC(C)C(=O)NC (stereo not given) (Cbz-A[Dha]PA-NHMe; configuration not given here)
inactive: dose: 25.0 mg/kg/injection, schedule: Q01DX009 (ip), vehicle: saline 111 % of control | dose: 50.0 mg/kg/injection, schedule: Q01DX009 (ip), vehicle: saline 100 % of control | dose: 100.0 mg/kg/injection, schedule: Q01DX009 (ip), vehicle: saline 96 % of control

CCCCC(=O)/C=C/c1ccc(Cl)c(Cl)c1
inactive: [2] 98 % of control | [3] 90 % of control | [4] 95 % of control

Cc1cc(N/N=C/c2ccc(Cl)cc2)c2cc3c(cc2n1)OCO3
inactive: [9] 98 % of control | [10] 103 % of control | [11] 102 % of control and 95 % of control

CSc1cccc2c(NCCCCCCCCNc3c4ccccc4nc4c(SC)cccc34)c3ccccc3nc12
inactive: dose: 0.32 mg/kg/injection, schedule: Q01DX009 (ip), vehicle: other 101 % of control | dose: 0.63 mg/kg/injection, schedule: Q01DX009 (ip), vehicle: other 104 % of control | dose: 1.25 mg/kg/injection, schedule: Q01DX009 (ip), vehicle: other 113 % of control | dose: 2.5 mg/kg/injection, schedule: Q01DX009 (ip), vehicle: other 113 % of control | dose: 5.0 mg/kg/injection, schedule: Q01DX009 (ip), vehicle: other 109 % of control | dose: 10.0 mg/kg/injection, schedule: Q01DX009 (ip), vehicle: other 111 % of control

O=C(O)CS(=O)(=O)N1CCOCC1
inactive: [11] 102 % of control | [12] 94 % of control

Cc1nc2c([N+](=O)[O-])c(N3CCCCC3)c([N+](=O)[O-])cc2[nH]1
inactive: [16] 101 % of control | [17] 104 % of control

NC(CS)C(=O)NCC(=O)O (stereo not given)
inactive: dose: 50.0 mg/kg/injection, schedule: Q01DX009 (ip), vehicle: distilled water + alcohol 109 % of control | dose: 100.0 mg/kg/injection, schedule: Q01DX009 (ip), vehicle: distilled water + alcohol 98 % of control | dose: 200.0 mg/kg/injection, schedule: Q01DX009 (ip), vehicle: distilled water + alcohol 92 % of control

NC(=O)[C@@H]1CCCN1C(=O)c1cccnc1
inactive: dose: 60.0 mg/kg/injection, schedule: Q01DX005 (ip), vehicle: saline 98 % of control | dose: 120.0 mg/kg/injection, schedule: Q01DX005 (ip), vehicle: saline 97 % of control | dose: 240.0 mg/kg/injection, schedule: Q01DX005 (ip), vehicle: saline 103 % of control

NC(=O)C1C(C(N)=O)C2C3C=CC(C4C(=O)NC(=O)C34)C12 (stereo not given)
inactive: [16] 102 % of control | [17] 109 % of control | dose: 400.0 mg/kg/injection, schedule: Q04DX002 (ip), vehicle: saline with Tween-80 111 % of control

CCCc1cc2c(=O)c(C(=O)OC)c[nH]c2cc1N(CC)CC
inactive: [11] 96 % of control | [12] 100 % of control | [13] 104 % of control

CC1(C)CC(OP(=[Se])(OC2CC(C)(C)N(O)C(C)(C)C2)N2CC2)CC(C)(C)N1O
inactive: dose: 12.5 mg/kg/injection, schedule: Q01DX001 (ip), vehicle: Klucel (hydroxypropylcellulose) (HPC) 102 % of control | dose: 25.0 mg/kg/injection, schedule: Q01DX001 (ip), vehicle: Klucel (hydroxypropylcellulose) (HPC) 105 % of control | [18] 106 % of control

CC(C)N(C)N=Nc1ccc(C(N)=O)cc1
inactive: [2] 114 % of control and 120 % of control | [3] 113 % of control

O=C(CCCc1ccccc1)N1CCOCC1
inactive: dose: 50.0 mg/kg/injection, schedule: Q01DX001 (ip), vehicle: saline sonified 90 % of control | dose: 100.0 mg/kg/injection, schedule: Q01DX001 (ip), vehicle: saline sonified 109 % of control | dose: 200.0 mg/kg/injection, schedule: Q01DX001 (ip), vehicle: saline sonified 100 % of control

O=CN1CCCC1Cc1ccc2ccccc2c1 (stereo not given)
inactive: [18] 107 % of control | dose: 100.0 mg/kg/injection, schedule: Q01DX001 (ip), vehicle: Klucel (hydroxypropylcellulose) (HPC) 98 % of control | dose: 200.0 mg/kg/injection, schedule: Q01DX001 (ip), vehicle: Klucel (hydroxypropylcellulose) (HPC) 101 % of control

CCC(C)NCC/C(=C\[Si](C)(C)C)c1ccccc1 (stereo not given)
inactive: [14] 100 % of control | [15] 106 % of control
